# Measurements from US10294202B2, “Pyrrolidinones as herbicides” (FMC Corporation, priority 2013, dated 2019).
# Columns and labels:
# ryegrass, Italian = assay: Test A pre-/postemergence herbicide test; format: in vivo, Lolium multiflorum; details: for Plant response rating, Ryegrass, Italian: 0 to 100 scale
# How it was run: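 Scoring was visual, relative to untreated controls, on a 0–100 scale after about 10 greenhouse days. Preemergence treatment used a directed soil spray over seeded loam/sand; postemergence treatment targeted one- to two-leaf plants of 2–10 cm.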
# blackgrass = assay: Test A postemergence herbicide test; format: in vivo, Alopecurus myosuroides
# How it was run: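 Visual injury rating, 0 (no effect) to 100 (complete control), versus untreated controls ~10 days after treatment. Postemergence spray applied at one- to two-leaf stage, plants 2–10 cm tall, potted in loam soil/sand. Greenhouse-held.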
# kochia = assay: Test C pre-/postemergence herbicide test; format: in vivo, Kochia scoparia; details: Postemergence
# How it was run: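 Response scores range from 0, meaning no effect, to 100, meaning complete control, assigned visually by comparison with controls roughly two weeks (13 to 15 days) after spraying. Applications were made preemergence to seeded loam–sand soil and postemergence to 1- to 4-leaf plants.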
# ducksalad = assay: Test C flooded paddy test; format: in vivo, Heteranthera limosa; details: Flood
# How it was run: (§1)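 Plants grown to the 2-leaf stage; pots flooded to 3 cm above soil and compound applied directly into the paddy water, depth kept throughout. Greenhouse 13 to 15 days, then visual rating vs untreated controls on 0–100 scale (0 no effect, 100 complete control); dash means no result.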
# barnyardgrass = assay: Test C flooded paddy test; format: in vivo, Echinochloa crus-galli; details: Flood
# How it was run: as §1
# [1] = 125 g ai/ha, scale of 0 to 100 where 0 is no effect and 100 is complete control, 13 to 15 days
# [2] = 250 g ai/ha, scale of 0 to 100 where 0 is no effect and 100 is complete control, 13 to 15 days
smiles,measurement,setting,value
O=C1NCC(c2cccc(C(F)(F)F)c2)C1C(=O)Nc1ccc(F)cc1F (racemic) [Compound 207],"Plant response rating, Ryegrass, Italian","ryegrass, Italian; 125 g ai/ha, visual rating, 0 no effect, 100 complete control, approximately 10 days, preemergence",20
same,"Plant response rating, Ryegrass, Italian","ryegrass, Italian; Postemergence, 125 g ai/ha, 0 is no effect, 100 is complete control",0
same,"Ryegrass, Italian plant response rating (0 to 100 scale, 0 is no effect, 100 is complete control)","ryegrass, Italian; Postemergence, 500 g ai/ha",50
same,"Plant response rating, Ryegrass, Italian","ryegrass, Italian; preemergence, 500 g ai/ha, 0 is no effect and 100 is complete control",40
same,"Plant response rating, Blackgrass","blackgrass; 125 g ai/ha, 0 to 100 scale, 0 is no effect, 100 is complete control",70
same,"Blackgrass plant response rating (0 to 100 scale, 0 is no effect, 100 is complete control)",blackgrass; 500 g ai/ha,70
same,"Plant response rating, Kochia","kochia; 31 g ai/ha, scale 0 to 100 (0 no effect, 100 complete control)",0
same,"Plant response rating, Kochia","kochia; 62 g ai/ha, scale 0 (no effect) to 100 (complete control)",0
same,"Plant response rating, Kochia","kochia; 125 g ai/ha, scale 0 to 100 (0 no effect, 100 complete control)",0
same,"Plant response rating, Kochia","kochia; 250 g ai/ha, scale 0 to 100 (0 no effect, 100 complete control)",30
same,"Plant response rating, Ducksalad",ducksalad; [1],60
same,"Plant response rating, Ducksalad",ducksalad; [2],75
same,"Plant response rating, Ducksalad","ducksalad; 500 g ai/ha, scale 0 to 100",100
same,"Plant response rating, Ducksalad","ducksalad; 1000 g ai/ha, scale 0 to 100",80
same,"Plant response rating, Barnyardgrass",barnyardgrass; [1],40
same,"Plant response rating, Barnyardgrass",barnyardgrass; [2],60
same,"Plant response rating, Barnyardgrass","barnyardgrass; 500 g ai/ha, scale 0 to 100",70
same,"Plant response rating, Barnyardgrass","barnyardgrass; 1000 g ai/ha, scale 0 to 100",75
